# In patent US10807995B2, “Thienothiophene compounds for long-acting injectable compositions and related methods” (priority 2018, dated 2020):
# “And” between values parts separate entries of the source, which are not always exact repeats. Identical values can stand only once.
# How the values were obtained:
# [1] = Whole blood stability assay; format: in vitro ADME; conditions: prodrug 50 nM in fresh pooled human whole blood, 37 degrees C.; read-out: t1/2 at 37 degrees C. in human whole blood
# Experimental: Naltrexone prodrug stability was assessed using freshly collected whole blood (within 24-hr collection) from pooled human (n=3) donors. The incubation mixtures were prepared by spiking the prodrugs into pre-warmed (37 degrees C.) fresh whole blood to a final concentration of 50 nM. After gentle mixing, aliquots of incubation mixtures were immediately transferred into four different 96-deep well plates. One plate was used for each time point. The plates were incubated at 37 degrees C. at a shaking speed of 100 rpm. At time points 15, 30, 60 and 120 minutes, the reaction was quenched by addition of a mixture of water and acetonitrile containing the internal standard (naltrexone-D3). Time point 0 minutes was prepared separately by spiking the prodrugs into a quenched whole blood to obtain a final concentration of 50 nM. All samples were vortexed at a low speed for 15 min and centrifuged at 3900 rpm for 15 min. Supernatants were transferred into 96-well plates for LC-MS/MS analysis to monitor the depletion of the prodrugs and the formation of naltrexone.
# The amount of remaining prodrug and released naltrexone for each sample was quantitated against the calibration curves prepared with the whole blood. The human whole blood was purchased from BioreclamationIVT (Westbury, N.Y., USA). Naltrexone-D3 was purchased from Cerilliant® (Round Rock, Tex., USA). […] Where multiple runs have been completed, average values are reported.
# [2] = Pharmacokinetic evaluation of the release of naltrexone from Compound 3 in rats following a single intramuscular injection; format: in vivo, Sprague-Dawley rats; conditions: for Compound 3 conc.: plasma of individual rats (Rat 1-6)
# Experimental: Six male Sprague-Dawley rats were allowed to acclimate to the test facility for at least 3 days prior to study start. For dose administration of Compound 3, the rats were lightly anesthetized with isofluorane, the hind leg shaved and dosed intramuscularly with the formulation using a 20 G needle. […] Serial whole blood samples were collected via sublingual route (˜150 μL) at 1, 8, and 24 hours post dose, and at 2, 4, 7, 10, 15, 22, 24, 28, 35, 42, 49, 56 and 63 days post dose.
# Blood samples were placed into K2EDTA blood collection tubes. After collection, blood samples were maintained chilled (on wet ice) and centrifuged (11,500 rpm for 2 minutes at 5 degrees C.) within 30 minutes to obtain plasma. Plasma was transferred into a single vial, 1.5 mL screw cap micro-centrifuge tube with inserts and stored at −80 degrees C. until analysis.
# The formulation dosed was a crystalline suspension of Compound 3 (44.4 milligrams of Compound 3 dosed per animal), wherein the crystalline test article was characterized with a particle size distribution of Dv10=1.6 μm, Dv50=4.1 μm, and Dv90=7.7 μm (as measured via laser diffraction). The formulation was prepared the day before dosing. Details of the formulation dosed are described in Table D below.
# Results of the above intramuscular rat study of Compound 3 are shown in Tables E and F. In particular, Table E reports the average blood plasma levels of naltrexone in rat (n=6) over 63 days following intramuscular administration.
# [3] = rat plasma over 63 days after single IM Compound 3
structure (smiles),measurement,setting,value
"O=C(Oc1ccc2c3c1O[C@H]1C(=O)CC[C@@]4(O)[C@@H](C2)N(CC2CC2)CC[C@]314)c1ccc(C(=O)Oc2ccc3c4c2O[C@H]2C(=O)CC[C@@]5(O)[C@@H](C3)N(CC3CC3)CC[C@]425)cc1 [Reference Compound A, NTX-3-terephthaloyl-NTX, reference compound]",half-life at 50 nM,[1],54.7 min
"O=C(Cc1cc2cc(CC(=O)Oc3ccc4c5c3O[C@H]3C(=O)CC[C@@]6(O)[C@@H](C4)N(CC4CC4)CC[C@]536)sc2s1)Oc1ccc2c3c1O[C@H]1C(=O)CC[C@@]4(O)[C@@H](C2)N(CC2CC2)CC[C@]314 [Compound 1, bis((4R,4aS,7aR,12bS)-3-(cyclopropylmethyl)-4a-hydroxy-7-oxo-2,3,4,4a,5,6,7,7a-octahydro-1H-4,12-methanobenzofuro[3,2-e]isoquinolin-9-yl) 2,2′-(thieno[2,3-b]thiophene-2,5-diyl)diacetate]",half-life at 50 nM,[1],11 min
"O=C(Cc1csc2scc(CC(=O)Oc3ccc4c5c3O[C@H]3C(=O)CC[C@@]6(O)[C@@H](C4)N(CC4CC4)CC[C@]536)c12)Oc1ccc2c3c1O[C@H]1C(=O)CC[C@@]4(O)[C@@H](C2)N(CC2CC2)CC[C@]314 [Compound 2, bis((4R,4aS,7aR,12bS)-3-(cyclopropylmethyl)-4a-hydroxy-7-oxo-2,3,4,4a,5,6,7,7a-octahydro-1H-4,12-methanobenzofuro[3,2-e]isoquinolin-9-yl) 2,2′-(thieno[2,3-b]thiophene-3,4-diyl)diacetate]",half-life at 50 nM,[1],15.7 min
"O=C(CCc1cc2sc(CCC(=O)Oc3ccc4c5c3O[C@H]3C(=O)CC[C@@]6(O)[C@@H](C4)N(CC4CC4)CC[C@]536)cc2s1)Oc1ccc2c3c1O[C@H]1C(=O)CC[C@@]4(O)[C@@H](C2)N(CC2CC2)CC[C@]314 [Compound 5, bis((4R,4aS,7aR,12bS)-3-(cyclopropylmethyl)-4a-hydroxy-7-oxo-2,3,4,4a,5,6,7,7a-octahydro-1H-4,12-methanobenzofuro[3,2-e]isoquinolin-9-yl) 3,3′-(thieno[3,2-b]thiophene-2,5-diyl)dipropionate]",half-life at 50 nM,[1],17.1 min
"O=C(Cc1cc2sc(CC(=O)Oc3ccc4c5c3O[C@H]3C(=O)CC[C@@]6(O)[C@@H](C4)N(CC4CC4)CC[C@]536)cc2s1)Oc1ccc2c3c1O[C@H]1C(=O)CC[C@@]4(O)[C@@H](C2)N(CC2CC2)CC[C@]314 [Compound 3, bis((4R,4aS,7aR,12bS)-3-(cyclopropylmethyl)-4a-hydroxy-7-oxo-2,3,4,4a,5,6,7,7a-octahydro-1H-4,12-methanobenzofuro[3,2-e]isoquinolin-9-yl) 2,2′-(thieno[3,2-b]thiophene-2,5-diyl)diacetate]",half-life at 50 nM,[1],6.46 min
same,conversion of Compound 3 to naltrexone,[2]; in rats over 63 days,efficient conversion
same,Compound 3 conc.,"[2]; single IM Compound 3, day 0.042 (1 hr)",<0.1 ng/mL
same,Compound 3 conc.,"[2]; single IM Compound 3, day 0.33 (8 hr)",<0.1 ng/mL
same,Compound 3 conc.,"[2]; single IM Compound 3, day 1",<0.1 ng/mL
same,Compound 3 conc.,"[2]; single IM Compound 3, day 2",<0.1 ng/mL
same,Compound 3 conc.,"[2]; single IM Compound 3, day 4",<0.1 ng/mL
same,Compound 3 conc.,"[2]; single IM Compound 3, day 7",<0.1 ng/mL (5×) and 0.161 ng/mL
same,Compound 3 conc.,"[2]; single IM Compound 3, day 10",<0.1 ng/mL
same,Compound 3 conc.,"[2]; single IM Compound 3, day 15",<0.1 ng/mL
same,Compound 3 conc.,"[2]; single IM Compound 3, day 22",<0.1 ng/mL
same,Compound 3 conc.,"[2]; single IM Compound 3, day 24",<0.1 ng/mL
same,Compound 3 conc.,"[2]; single IM Compound 3, day 28",<0.1 ng/mL
same,Compound 3 conc.,"[2]; single IM Compound 3, day 35",<0.1 ng/mL
same,Compound 3 conc.,"[2]; single IM Compound 3, day 42",<0.1 ng/mL (5×) and 0.128 ng/mL
same,Compound 3 conc.,"[2]; single IM Compound 3, day 49",0.134 ng/mL and 0.131 ng/mL and 0.138 ng/mL and <0.1 ng/mL (2×) and 0.143 ng/mL
same,Compound 3 conc.,"[2]; single IM Compound 3, day 56",2.02 ng/mL and 0.753 ng/mL and 0.501 ng/mL and 0.281 ng/mL and 0.245 ng/mL and 0.237 ng/mL
same,Compound 3 conc.,"[2]; single IM Compound 3, day 63",0.184 ng/mL and 0.229 ng/mL and 0.223 ng/mL and 0.234 ng/mL and 0.255 ng/mL and 0.207 ng/mL
same,concentrations of parent Compound 3,[2]; [3],generally low to not measurable
"O=C(Cc1csc2c(CC(=O)Oc3ccc4c5c3O[C@H]3C(=O)CC[C@@]6(O)[C@@H](C4)N(CC4CC4)CC[C@]536)csc12)Oc1ccc2c3c1O[C@H]1C(=O)CC[C@@]4(O)[C@@H](C2)N(CC2CC2)CC[C@]314 [Compound 6, bis((4R,4aS,7aR,12bS)-3-(cyclopropylmethyl)-4a-hydroxy-7-oxo-2,3,4,4a,5,6,7,7a-octahydro-1H-4,12-methanobenzofuro[3,2-e]isoquinolin-9-yl) 2,2′-(thieno[3,2-b]thiophene-3,6-diyl)diacetate]",half-life at 50 nM,[1],11 min
"O=C(O)Cc1cc2sc(CC(=O)Oc3ccc4c5c3O[C@H]3C(=O)CC[C@@]6(O)[C@@H](C4)N(CC4CC4)CC[C@]536)cc2s1 [Compound 3i, 2-(5-(2-(((4R,4aS,7aR,12bS)-3-(cyclopropylmethyl)-4a-hydroxy-7-oxo-2,3,4,4a,5,6,7,7a-octahydro-1H-4,12-methanobenzofuro[3,2-e]isoquinolin-9-yl)oxy)-2-oxoethyl)thieno[3,2-b]thiophen-2-yl)acetic acid]",concentrations of the resultant intermediate Compound 3i,[2]; [3],generally low to not measurable
same,Compound 3i conc.,"[2]; resultant intermediate in plasma of individual rats (Rat 1-6) after single IM Compound 3, day 2",<0.2 ng/mL
same,Compound 3i conc.,"[2]; resultant intermediate in plasma of individual rats (Rat 1-6) after single IM Compound 3, day 4",<0.2 ng/mL
same,Compound 3i conc.,"[2]; resultant intermediate in plasma of individual rats (Rat 1-6) after single IM Compound 3, day 7",<0.2 ng/mL
same,Compound 3i conc.,"[2]; resultant intermediate in plasma of individual rats (Rat 1-6) after single IM Compound 3, day 10",<0.2 ng/mL
same,Compound 3i conc.,"[2]; resultant intermediate in plasma of individual rats (Rat 1-6) after single IM Compound 3, day 15",<0.2 ng/mL
same,Compound 3i conc.,"[2]; resultant intermediate in plasma of individual rats (Rat 1-6) after single IM Compound 3, day 22",<0.2 ng/mL
same,Compound 3i conc.,"[2]; resultant intermediate in plasma of individual rats (Rat 1-6) after single IM Compound 3, day 24",<0.2 ng/mL
same,Compound 3i conc.,"[2]; resultant intermediate in plasma of individual rats (Rat 1-6) after single IM Compound 3, day 28",<0.2 ng/mL
same,Compound 3i conc.,"[2]; resultant intermediate in plasma of individual rats (Rat 1-6) after single IM Compound 3, day 35",<0.2 ng/mL
same,Compound 3i conc.,"[2]; resultant intermediate in plasma of individual rats (Rat 1-6) after single IM Compound 3, day 42",<0.2 ng/mL (4×) and 0.805 ng/mL and 0.149 ng/mL
"Cc1c(CC(=O)Oc2ccc3c4c2O[C@H]2C(=O)CC[C@@]5(O)[C@@H](C3)N(CC3CC3)CC[C@]425)sc2c(C)c(CC(=O)Oc3ccc4c5c3O[C@H]3C(=O)CC[C@@]6(O)[C@@H](C4)N(CC4CC4)CC[C@]536)sc12 [Compound 4, bis((4R,4aS,7aR,12bS)-3-(cyclopropylmethyl)-4a-hydroxy-7-oxo-2,3,4,4a,5,6,7,7a-octahydro-1H-4,12-methanobenzofuro[3,2-e]isoquinolin-9-yl) 2,2′-(3,6-dimethylthieno[3,2-b]thiophene-2,5-diyl)diacetate]",half-life at 50 nM,[1],20.7 min
